Target: 5-HT2A receptors (Rattus norvegicus, UniProt P14842)
Assay: in-vitro affinity to 5-HT2A receptors, displacement of [3H]ketanserine (Example A1)
Type: binding
Details: read-out: HT2A IC50
Source text: The 5-HT2A receptors are exposed both to [^3H]ketanserine (a substance which is known for its affinity to the receptor) and also to the test compound. The decrease in the affinity of [^3H]ketanserine to the receptor is an indication of the affinity of the test substance to the 5-HT2A receptor.

5-HT2A receptors, sequence (P14842 whole entry): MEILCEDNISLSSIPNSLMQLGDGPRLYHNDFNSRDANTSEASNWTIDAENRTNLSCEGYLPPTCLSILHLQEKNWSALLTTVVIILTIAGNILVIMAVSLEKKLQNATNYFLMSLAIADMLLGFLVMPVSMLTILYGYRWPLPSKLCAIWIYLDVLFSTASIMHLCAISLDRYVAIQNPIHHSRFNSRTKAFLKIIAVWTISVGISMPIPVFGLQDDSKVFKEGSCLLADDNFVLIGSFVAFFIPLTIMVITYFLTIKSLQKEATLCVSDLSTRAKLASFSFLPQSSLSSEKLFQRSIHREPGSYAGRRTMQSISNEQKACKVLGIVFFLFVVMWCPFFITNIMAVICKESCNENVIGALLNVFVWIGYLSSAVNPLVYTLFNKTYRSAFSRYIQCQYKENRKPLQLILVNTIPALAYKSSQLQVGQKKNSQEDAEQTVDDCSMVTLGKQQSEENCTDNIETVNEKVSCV

Row | SMILES | IC50 [nM]
1 | Fc1ccc(F)c(-c2ccc(-n3ncc(CNCC4CCCO4)c3-c3ccccc3F)cc2)c1 (stereo not shown) [Example 1044, [1-(2′,5′-Difluorobiphenyl-4-yl)-5-(2-fluoro-phenyl)-1H-pyrazol-4-ylmethyl](tetrahydro-furan-2-ylmethyl)amine] | 370
2 | Cc1cc(CNCc2cnn(-c3ccc(-c4ccccc4)cc3)c2-c2ccccc2)no1 [Example 1023, (1-Biphenyl-4-yl-5-phenyl-1H-pyrazol-4-yl-methyl)-(5-methylisoxazol-3-ylmethyl)amine] | 240
3 | Fc1ccccc1-c1c(CN2CC3CC2CO3)cnn1-c1ccc(-c2ccccc2)cc1 (stereo not shown) [Example 996, 5-[1-Biphenyl-4-yl-5-(2-fluorophenyl)-1H-pyrazol-4-ylmethyl]-2-oxa-5-azabicyclo-[2.2.1]heptane] | 160
4 | OCc1cnn(-c2ccc(-c3ccc(F)cc3)cc2)c1-c1ccccc1Cl [Example 1048, [5-(2-Chlorophenyl)-1-(4′-fluoro-biphenyl-4-yl)-1H-pyrazol-4-yl]methanol] | 380
5 | Fc1ccccc1-c1c(CCCN2CCOCC2)cnn1-c1ccc(-c2ccccc2)cc1 [Example 917, 4-{3-[1-Biphenyl-4-yl-5-(2-fluoro-phenyl)-1H-pyrazol-4-yl]propyl}morpholine] | 23

Second part, the compound after the results:

Row | IC50 [nM] | SMILES
6 | 190 | CN1CCN(Cc2cnn(-c3ccc(-c4ccc(F)cc4)cc3)c2-c2ccc(Cl)c(Cl)c2)CC1 [Example 1007, 1-[5-(3,4-Dichlorophenyl)-1-(4′-fluoro-biphenyl-4-yl)-1H-pyrazol-4-ylmethyl]-4-methyl-piperazine]
7 | 230 | Cc1ccccc1-c1ccc(-n2ncc(CN3CCN(C)CC3)c2-c2ccccc2F)cc1 [Example 1020, 1-[5-(2-Fluorophenyl)-1-(2′-methyl-biphenyl-4-yl)-1H-pyrazol-4-ylmethyl]-4-methylpiperazine]
8 | 86 | CN1CCN(Cc2cnn(-c3ccc(-c4cc(Cl)cc(Cl)c4)cc3)c2-c2ccccc2F)CC1 [Example 973, 1-[1-(3′,5′-Dichlorobiphenyl-4-yl)-5-(2-fluoro-phenyl)-1H-pyrazol-4-ylmethyl]-4-methyl-piperazine]
9 | 57 | CCc1ccc(-c2ccc(-n3ncc(CN4CCN(C)CC4)c3-c3ccccc3F)cc2)cc1 [Example 956, 1-[1-(4′-Ethylbiphenyl-4-yl)-5-(2-fluorophenyl)-1H-pyrazol-4-ylmethyl]-4-methylpiperazine]
10 | 35 | CN(C)C1CCN(Cc2cnn(-c3ccc(-c4ccccc4)cc3)c2-c2ccccc2F)C1 (stereo not shown) [Example 936, {1-[1-Biphenyl-4-yl-5-(2-fluoro-phenyl)-1H-pyrazol-4-ylmethyl]pyrrolidin-3-yl}dimethyl-amine]
11 | 48 | Fc1ccccc1-c1c(CN2CCCCCC2)cnn1-c1ccc(-c2ccccc2)cc1 [Example 948, 1-[1-Biphenyl-4-yl-5-(2-fluorophenyl)-1H-pyrazol-4-ylmethyl]azepan]

Same assay, conditions: target not given; description names affinity to 5-HT2A receptors; read-out: IC50

Row | SMILES | IC50 [nM]
12 | CN1CCN(Cc2cnn(-c3ccc(-c4ccccc4F)cc3)c2-c2ccccc2F)CC1 [(63), 1-[1-(2′-Fluorobiphenyl-4-yl)-5-(2-fluorophenyl)-1H-pyrazol-4-ylmethyl]-4-methylpiperazine] | 93
13 | Fc1ccccc1-c1c(CN2CCCCC2)cnn1-c1ccc(-c2ccccc2)cc1 [(23), 1-[1-Biphenyl-4-yl-5-(2-fluorophenyl)-1H-pyrazol-4-ylmethyl]-piperidine] | 30
14 | OCc1cnn(-c2ccc(-c3ccc(F)cc3)nc2)c1-c1ccccc1F [(119), {5-(2-Fluorophenyl)-1-[6-(4-fluorophenyl)pyridin-3-yl]-1H-pyrazol-4-yl}methanol] | 300
15 | COCCN(C)Cc1cnn(-c2ccc(-c3ccccc3F)nc2)c1-c1ccccc1F [(157), {5-(2-Fluorophenyl)-1-[6-(2-fluorophenyl)pyridin-3-yl]-1H-pyrazol-4-ylmethyl}-(2-methoxyethyl)methylamine] | 2000
16 | Nc1ncc(NCc2cnn(-c3ccc(-c4ccc(F)cc4)nc3)c2-c2ccccc2F)cn1 [(197)] | 1300
17 | Fc1ccccc1-c1c(CNc2cnccn2)cnn1-c1ccc(-c2ccccc2)cc1 [(158), [1-Biphenyl-4-yl-5-(2-fluorophenyl)-1H-pyrazol-4-ylmethyl]-pyrazin-2-ylamine] | 2300
18 | CC(C)(C)OC(=O)N1CCC(NCc2cnn(-c3ccc(-c4ccccc4)cc3)c2-c2ccccc2F)C1 (stereo not shown) [(176), tert-Butyl 3-{[1-biphenyl-4-yl-5-(2-fluorophenyl)-1H-pyrazol-4-ylmethyl]amino}pyrrolidine-1-carboxylate] | 460
19 | CN1CCN(NCc2cnn(-c3ccc(-c4ccccc4)cc3)c2-c2ccccc2F)CC1 [(40), [1-Biphenyl-4-yl-5-(2-fluorophenyl)-1H-pyrazol-4-ylmethyl]-(4-methylpiperazin-1-yl)amine] | 14
20 | CN1CCC(N(C)Cc2cnn(-c3ccc(-c4ccccc4)cc3)c2-c2ccccc2F)C1 (stereo not shown) [(168), [1-Biphenyl-4-yl-5-(2-fluorophenyl)-1H-pyrazol-4-ylmethyl]-methyl-(1-methylpyrrolidin-3-yl)amine] | 16
21 | N#CC(NCc1cnn(-c2ccc(-c3ccccc3)cc2)c1-c1ccccc1F)C(N)=O (stereo not shown) [(136), 2-{[1-Biphenyl-4-yl-5-(2-fluorophenyl)-1H-pyrazol-4-ylmethyl]-amino}-2-cyanoacetamide] | 130
22 | CCN(CC)Cc1cnn(-c2ccc(-c3ccccc3)cc2)c1-c1ccccc1F [(33), [1-Biphenyl-4-yl-5-(2-fluorophenyl)-1H-pyrazol-4-ylmethyl]-diethylamine] | 55
23 | Fc1ccccc1-c1c(CN2CCNCC2)cnn1-c1ccc(-c2ccccc2)cc1 [(55), 1-[1-Biphenyl-4-yl-5-(2-fluorophenyl)-1H-pyrazol-4-ylmethyl]-piperazine] | 26
24 | CN1CCN(Cc2cnn(-c3ccc(-c4ccccc4)cc3)c2-c2cccnc2)CC1 [(113), 1-(1-Biphenyl-4-yl-5-pyridin-3-yl-1H-pyrazol-4-ylmethyl)-4-methylpiperazine] | 290
25 | Fc1ccc(-c2ccc(-n3ncc(CN4CCOCC4)c3-c3ccccc3F)cc2)cc1 [(61), 4-[1-(4′-Fluorobiphenyl-4-yl)-5-(2-fluorophenyl)-1H-pyrazol-4-ylmethyl]morpholine] | 520
26 | OC1CCN(Cc2cnn(-c3ccc(-c4ccccc4)cc3)c2-c2ccccc2F)C1 (stereo not shown) [(53), 1-[1-Biphenyl-4-yl-5-(2-fluorophenyl)-1H-pyrazol-4-ylmethyl]-pyrrolidin-3-ol] | 14
27 | CN(CC(N)=O)Cc1cnn(-c2ccc(-c3ccccc3)cc2)c1-c1ccccc1F [(132), 2-{[1-Biphenyl-4-yl-5-(2-fluorophenyl)-1H-pyrazol-4-ylmethyl]-methylamino}acetamide] | 920
28 | Fc1ccccc1-c1c(CN2CCN3CCc4ccccc4C3C2)cnn1-c1ccc(-c2ccccc2)cc1 (stereo not shown) [(27), 2-[1-Biphenyl-4-yl-5-(2-fluorophenyl)-1H-pyrazol-4-ylmethyl]-1,3,4,6,7,11b-hexahydro-2H-pyrazino[2,1-a]-isoquinoline] | 280
29 | C=CCC(O)c1cnn(-c2ccc(-c3ccccc3)cc2)c1-c1ccccc1F (stereo not shown) [(150), 1-[1-Biphenyl-4-yl-5-(2-fluorophenyl)-1H-pyrazol-4-yl]-but-3-en-1-ol] | 1300
30 | CCOC(=O)CNCc1cnn(-c2ccc(-c3ccccc3F)nc2)c1-c1ccccc1F [(148), Ethyl ({5-(2-fluorophenyl)-1-[6-(2-fluorophenyl)pyridin-3-yl]-1H-pyrazol-4-ylmethyl}amino)acetate] | 1600
31 | Fc1ccccc1-c1c(CNC2C3CNCC32)cnn1-c1ccc(-c2ccccc2)cc1 (stereo not shown) [(192), (3-Azabicyclo[3.1.0]hex-6-yl)-[1-biphenyl-4-yl-5-(2-fluorophenyl)-1H-pyrazol-4-ylmethyl]amine] | 320

Continued, values first:

Row | IC50 [nM] | SMILES
32 | 430 | OC1CCN(Cc2cnn(-c3ccc(-c4ccccc4)cc3)c2-c2ccccc2F)CC1 [(81), 1-[1-Biphenyl-4-yl-5-(2-fluorophenyl)-1H-pyrazol-4-ylmethyl]-piperidin-4-ol]
33 | 140 | CN1CCN(Cc2cnn(-c3ccc(-c4ccccc4)nc3)c2-c2cccnc2)CC1 [(198), 1-Methyl-4-[1-(6-phenylpyridin-3-yl)-5-pyridin-3-yl-1H-pyrazol-4-ylmethyl]piperazine]
34 | 160 | CN1CCC(N(C)Cc2cnn(-c3ccc(-c4ccccc4)cc3)c2-c2ccccc2F)CC1 [(39), [1-Biphenyl-4-yl-5-(2-fluorophenyl)-1H-pyrazol-4-ylmethyl]-methyl-(1-methylpiperidin-4-yl)amine]
35 | 130 | CC1CCN(Cc2cnn(-c3ccc(-c4ccccc4)cc3)c2-c2ccccc2F)CC1 [(49), 1-[1-Biphenyl-4-yl-5-(2-fluorophenyl)-1H-pyrazol-4-ylmethyl]-4-methylpiperidine]
36 | 66 | Fc1ccccc1-c1c(CN2CCC(Cc3cccnc3)CC2)cnn1-c1ccc(-c2ccccc2)cc1 [(195), 3-{1-[1-Biphenyl-4-yl-5-(2-fluorophenyl)-1H-pyrazol-4-ylmethyl]piperidin-4-ylmethyl}pyridine]
37 | 170 | Fc1ccccc1-c1c(CN2CCN(Cc3ccccc3)CC2)cnn1-c1ccc(-c2ccccc2)cc1 [(24), 1-Benzyl-4-[1-biphenyl-4-yl-5-(2-fluorophenyl)-1H-pyrazol-4-ylmethyl]piperazine]
38 | 940 | CCOC(=O)CNCc1cnn(-c2ccc(-c3ccccc3)cc2)c1-c1cccnc1 [(117), Ethyl [(1-biphenyl-4-yl-5-pyridin-3-yl-1H-pyrazol-4-ylmethyl)-amino]acetate]
39 | 230 | CCNC(=O)CN1CCN(Cc2cnn(-c3ccc(-c4ccccc4)cc3)c2-c2ccccc2F)CC1 [(139), 2-{4-[1-Biphenyl-4-yl-5-(2-fluorophenyl)-1H-pyrazol-4-ylmethyl]piperazin-1-yl}-N-ethylacetamide]
40 | 1100 | CN1CCN(Cc2cnn(-c3ccc(-c4ccsc4)cc3)c2-c2ccc(F)cc2)CC1 [(102), 1-[5-(4-Fluorophenyl)-1-(4-thiophen-3-ylphenyl)-1H-pyrazol-4-ylmethyl]-4-methylpiperazine]
